The source of these data is patent US20240325412A1, “COMBINATIONS” (Recurium IP Holdings, LLC, priority 2021, published 2024).

The inhibition is the share of the control response that was lost under treatment.

In assay [1] the test system is HL-60 cells. The assay can be described thus: HL-60 leukemia xenograft model. The assay is classed as in vivo, Mice. Conditions: HL-60 xenograft, Compound (1A) 25 mg/kg p.o. qd×21, Compound (B) 30 mg/kg p.o., azacitidine 1 mg/kg IP 5 days on 2 days off. As for the experimental part:
Mice were inoculated with HL-60 cells subcutaneously on the right flank with the single cell suspension of 95% viable tumor cells (1×10^7) in 100 μL IMDM Matrigel mixture (1:1 ratio) without serum for the tumor development. The treatment was started when the mean tumor size reached approximately 214 mm^3, with individual tumor size ranging from 185-245 mm^3. Animals were randomly distributed into treatment groups of 10 animals each and dosed with vehicle and indicated compounds at indicated dosage and frequency shown in FIG. 5 and Table 4. In FIG. 5, the bottom line is Compound (1A) 25 mg/kg p.o. qd×21+Compound (B) 30 mg/kg p.o. pd×21+azacitidine 1 mg/kg IP 5 days on 2 days off×3 cycle, the second from the bottom line is Compound (1A)+Compound (B), the third from the bottom line is Compound (1A)+azacytidine, the fourth from the bottom line is Compound (1A), the top line is Vehicle, the second from the top line is Compound (B), and the remaining two lines are azacytidine (indicated with triangles) and Compound (B)+azacytidine (indicated with diamonds). Tumor volumes were evaluated twice per week to calculate tumor volume over time, and mice were weighed twice per week as a surrogate for signs of toxicity. Tumor growth inhibition (TGI) was calculated using the following equation TGI=(1−(Td−T0)/(Cd−C0))×100%. Td and Cd are the mean tumor volumes of the treated and control animals, and T0 and C0 are the mean tumor volumes of the treated and control animals at the start of the experiment. The tumor regression was defined as individual tumor volume (TV) decrease (terminal TV compared to initial TV). FIG. 5 and Table 4 illustrate that single agent, double agent and triple treatment of Compound (1A) at 25 mg/kg, Compound (B) at 30 mg/kg and azacitidine at 1 mg/kg.

The subject of assay [2] is HL-60 cells. The assay can be described thus: CellTiter-Glo Luminescent Cell Viability Assay, HL-60. Conditions: Homo sapiens, 72 h, Compound (1A) 40 nM, Compound (B) 120 nM, Azacitidine 1500 nM, alone or combined. The assay is classed as cell-based. The protocol: (§1) Cell proliferation was measured using the CellTiter-Glo® Luminescent Cell Viability Assay. The assay involved the addition of a single reagent (CellTiter-Glo® Reagent) directly to cells cultured in serum-supplemented medium. OPM-2, MOLM-13 and HL-60 cells were cultured according to ATCC recommendations and were seeded at 10,000 cells per well.
(§2) Compound (1 A), Compound (B) and Dexamethasone or Azacitidine were prepared as a DMSO stock solution (10 mM). For OPM-2 cell line, compounds were tested in triplicate using Dexamethasone; MOLM-13 and HL-60 cell lines compound were tested in triplicate using Azacitidine. Plates were incubated at 37° C., 5% CO2 for 72 h and then equilibrated at room temperature (RT) for approximately 30 min. An equal-volume amount of CellTiter-Glo® Reagent (100 μL) was added to each well. Plates were mixed for 2 min on an orbital shaker to induce cell lysis and then incubated at RT for 10 min to stabilize the luminescent signal. Luminescence (RLU (relative light unit)) was recorded using a SpectraMAX, M5e plate reader according to CellTiter-Glo protocol. Percent inhibition was calculated using the following formula: % inhibition=(RLU*100/(RLU of the cell background)).
Background: Cellular ATP, detected with luciferase, serves as a proxy for viable cell number.

The subject of assay [3] is MOLM-13 cells. The assay can be described thus: CellTiter-Glo Luminescent Cell Viability Assay, MOLM-13. The assay is classed as cell-based. Conditions: Homo sapiens, 72 h, Compound (1A) 4 nM, Compound (B) 12 nM alone / 120 nM in combinations, Azacitidine 300 nM. As for the experimental part: as §1, §2
In assay [4] the test system is OPM-2 cells. The assay can be described thus: CellTiter-Glo Luminescent Cell Viability Assay, OPM-2. The assay is classed as cell-based. To be noted: Homo sapiens, 72 h, Compound (1A) 1500 nM, Compound (B) 300 nM, Dexamethasone 100 nM, alone or combined. As for the experimental part:
as §1, §2

Assay [5] deals with MDA-MB-436 cells (TNBC breast cancer cell line). The assay is described as follows: MDA-MB-436 triple negative breast cancer xenograft model. The assay is classed as in vivo, Mice. Conditions: MDA-MB-436 xenograft; Compound (1A) 200 mg/kg p.o. qd×40, Compound (B) 60 mg/kg p.o. qd×40; day 40. As for the experimental part: Mice were inoculated with MDA-MB-436 cells (TNBC breast cancer cell line) subcutaneously on the right flank with the single cell suspension of 95% viable tumor cells (1×10^7) in 100 μL DMDM Matrigel mixture (1:1 ratio) without serum for the tumor development. The treatment was started when the mean tumor size reached approximately 210 mm^3 for each model (with individual tumor volumes between 180-240 mm^3). Animals were randomly distributed into treatment groups of 8 animals each and dosed with vehicle and indicated compounds at indicated dosage and frequency shown in FIG. 8 and Table 7. In FIG. 8, the top line (indicated with circles) is Vehicle control, the second from the top line (indicated with diamonds) is Compound (1A) (200 mg/kg 10 mL/kg p.o. qd×40) and the third line from the top (indicated with triangles) Compound (B) (60 mg/kg 10 mL/kg p.o. qd×40). The bottom line (indicated with circles) is Compound (1A) (200 mg/kg 10 mL/kg p.o. qd×40)+Compound (B) (60 mg/kg 10 mL/kg p.o. qd×40). Tumor volumes were evaluated twice per week to calculate tumor volume over time, and mice were weighed twice per week as a surrogate for signs of toxicity. Tumor growth inhibition (TGI) was calculated using the following equation TGI=(1−(Td−T0)/(Cd−C0))×100%. […]

In assay [6] the test system is KMS-12-BM cells. The assay is described as follows: KMS-12-BM multiple myeloma xenograft model. The assay is classed as in vivo, Mice. To be noted: KMS-12-BM xenograft, Compound (1A) 25 mg/kg, Compound (B) 30 mg/kg, Dexamethasone 1 mg/kg (text: 100 and 60 mg/kg). The protocol: Mice were inoculated with KMS-12-BM cells subcutaneously on the right flank with the single cell suspension of 95% viable tumor cells (1×10^7) in 100 μL IMDM Matrigel mixture (1:1 ratio) without serum for the tumor development. The treatment was started when the mean tumor size reached approximately 193 mm^3, with individual tumor size ranging from 185-220 mm^3. Animals were randomly distributed into treatment groups of 10 animals each and dosed with vehicle and indicated compounds at indicated dosage and frequency shown in FIG. 7 and Table 6. In FIG. 7, the bottom line is Compound (1A) 100 mg/kg p.o. qd×21+Compound (B) 60 mg/kg p.o. pd×21+Dexamethasone 1 mg/kg IP 5 days on 2 days off ×3, the second from the bottom line is Compound (1A)+Compound (B), the third from the bottom line is Compound (B)+Dexamethasone, the fourth from the bottom line (indicated with triangles) is Compound (B), the top line is Vehicle, the second from the top line is Dexamethasone, the third from the top line is Compound (1A) and the remaining line is Compound (1A)+Dexamethasone. Tumor volumes were evaluated twice per week to calculate tumor volume over time, and mice were weighed twice per week as a surrogate for signs of toxicity. Tumor growth inhibition (TGI) was calculated using the following equation TGI=(1−(Td−T0)/(Cd−C0))×100%. Td and Cd are the mean tumor volumes of the treated and control animals, and T0 and C0 are the mean tumor volumes of the treated and control animals at the start of the experiment. The tumor regression was defined as individual tumor volume (TV) decrease (terminal TV compared to initial TV). The percent tumor regression was calculated using the formula: (1−(Td/T0))×100%.

Assay [7] deals with OPM-2 cells. The assay is described as follows: OPM-2 multiple myeloma xenograft model. To be noted: OPM-2 xenograft, Compound (1A) 25 mg/kg, Compound (B) 30 mg/kg, Bortezomib 0.5 mg/kg (text: 100 and 60 mg/kg p.o. qd×21, IP BIW). The assay is classed as in vivo, Mice. The protocol: Mice were inoculated with OPM-2 cells subcutaneously on the right flank with the single cell suspension of 95% viable tumor cells (1×10^7) in 100 μL IMDM Matrigel mixture (1:1 ratio) without serum for the tumor development. The treatment was started when the mean tumor size reached approximately 200 mm^3, with individual tumor size ranging from 185-225 mm^3. Animals were randomly distributed into treatment groups of 10 animals each and dosed with vehicle and indicated compounds at indicated dosage and frequency shown in FIG. 6 and Table 5. In FIG. 6, the bottom line is Compound (1A) 100 mg/kg p.o. qd×21+Compound (B) 60 mg/kg p.o. pd×21+Bortezomib 0.5 mg/kg IP BIW (twice a week)×3, the second from the bottom line is Compound (1A)+Compound (B), the third from the bottom line is Compound (B)+Bortezomib, the fourth from the bottom line is Compound (B), the top line is Vehicle, the second from the top is Bortezomib, the third from the top line (indicted with squares) is Compound (1A) and the fourth from the top line is Compound (1A)+Bortezomib. Tumor volumes were evaluated twice per week to calculate tumor volume over time, and mice were weighed twice per week as a surrogate for signs of toxicity. Tumor growth inhibition (TGI) was calculated using the following equation TGI=(1−(Td−T0)/(Cd−C0))×100%. Td and Cd are the mean tumor volumes of the treated and control animals, and T0 and C0 are the mean tumor volumes of the treated and control animals at the start of the experiment. The tumor regression was defined as individual tumor volume (TV) decrease (terminal TV compared to initial TV). FIG. 6 and Table 5 illustrate that single agent, double agent, and triple treatment of Compound (1A) at 100 mg/kg, Compound (B) at 60 mg/kg and bortezomib at 0.5 mg/kg.

In the case of `Nc1ncn([C@@H]2O[C@H](CO)[C@@H](O)[C@H]2O)c(=O)n1` [Azacitidine, reference compound], the “TGI % (DAY 18)” value in assay [1] stood at 16%. The inhibition at 1.5 µM in assay [2] stood at 2.3%. In addition, the inhibition at 0.3 µM in assay [3] worked out at 10.7%.
Take `C=CCn1c(=O)c2cnc(Nc3ccc(N4CCN(C)CC4)cc3)nc2n1-c1ccc2c(n1)[C@@](O)(CC)CC2` [Compound (B)]: the inhibition at 0.3 µM in assay [4] was determined as 4.3%. In addition, the “TGI % (DAY 18)” value in assay [1] amounted to 6%. In addition, the TGI % in assay [5] is 55%. In assay [6], the “TGI % (DAY 14)” value is on record as 74.5%. Moreover, the inhibition at 0.12 µM in assay [2] amounted to 5.6%. Also, the inhibition at 0.012 µM in assay [3] is 38.6%. Moreover, the “TGI % (DAY 17)” value in assay [7] is listed as 33%.
With `C[C@@H]1C[C@H]2[C@@H]3CCC4=CC(=O)C=C[C@]4(C)[C@@]3(F)[C@@H](O)C[C@]2(C)[C@@]1(O)C(=O)CO` [Dexamethasone, reference compound], the inhibition at 0.1 µM in assay [4] stood at 32%. For the same molecule, in assay [6], the “TGI % (DAY 14)” value was 22.5%.
In the case of `CC1(C)CCC(CN2CCN(c3ccc(C(=O)NS(=O)(=O)c4ccc(NC[C@H]5CC[C@](C)(O)CC5)c([N+](=O)[O-])c4)c(Oc4cnc5[nH]ccc5c4)c3)CC2)=C(C23CC(C(F)F)(C2)C3)C1` [Compound (1A)], in assay [4], the inhibition at 1.5 µM was 43%. Besides, in assay [1], the “TGI % (DAY 18)” value came out at 25%. Moreover, in assay [5], the TGI % is 60%. In assay [6], the “TGI % (DAY 14)” value was determined as 62.8%. Further, the inhibition at 0.04 µM in assay [2] is 20.4%. Moreover, in assay [3], the inhibition at 0.004 µM turned out to be 35.4%. Further, the “TGI % (DAY 17)” value in assay [7] stood at 18%.
As to `CC(C)C[C@H](NC(=O)[C@H](Cc1ccccc1)NC(=O)c1cnccn1)B(O)O` [Bortezomib, reference compound], the “TGI % (DAY 17)” value in assay [7] was found to be 0%.
